The values below come from PubChem BioAssay (NCI).

Holding throughout (experiment): DTP human tumour cell line panel, 48 h
Assay [1] concerns OVCAR-3 ovarian.
Assay [2] concerns EKVX NSCLC.
The test system of assay [3] is COLO 205 colon.
Assay [4] deals with HS 578T breast.
Assay [5] deals with SF-268 CNS.
In assay [6] the test system is NCI-H226 lung.
Assay [7] deals with MDA-MB-231 breast.
In assay [8] the test system is SK-MEL-28 melanoma.
Assay [9] deals with MDA-MB-435.
The test system of assay [10] is A549 NSCLC.

Where “and” joins values, the source holds several entries; their conditions need not be identical. Equal entries are not always repeated.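 Briefly, cells in 96-well plates were exposed to five compound concentrations for 48 h, and endpoints were estimated by linear interpolation. At the GI50, growth is halved. Definition used: TGI = concentration required for complete inhibition of growth.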 Where only a bound is given, the exact number is not on record here.

In general, GI50 refers to the concentration at which growth is held to half of that of the control. The TGI is the concentration at which net growth stops. Read a high TGI as lower sensitivity of the cells.

Consider `CNC(=O)c1cccc(C#Cc2cncnc2Nc2ccc(OCc3cccc(F)c3)c(Cl)c2)c1`, for which the GI50 in [1] was 3.82 µM; in assay [2] it was 1.22 µM; in [3] it was 7.5 µM; in assay [4], 7.47 µM; in assay [5], 4.54 µM; in assay [6] it was 5.8 µM. Moreover, the GI50 in assay [7] is 5.95 µM; in assay [8], 5.82 µM; in [9], 7.02 µM; in assay [10], 3.85 µM. Besides, the TGI in assay [1] was 8.03 µM; in [2], above 25 µM; in assay [3], above 18.4 µM; in assay [4] it was above 25 µM; in [5] it was 12.9 µM; in [6], above 17.9 µM. For the same compound, the TGI in assay [7] is above 19.5 µM; in assay [8], above 17.7 µM; in assay [9], above 25 µM; in [10] it was 8.9 µM.
As for `Cc1ccccc1C(C(=O)NC1CCCCC1)N(C(=O)CNc1ccc(C#N)cc1)c1cccc(F)c1` (stereo unspecified), the GI50 in assay [1] was above 63 µM; in assay [2] it was 42.5 µM; in assay [3], above 83.2 µM; in assay [4], 7.05 µM; in assay [5], 16.6 µM; in [6] it was 14.1 µM. In addition, the GI50 in assay [7] is 12.4 µM; in assay [8], 32.4 µM; in assay [9], above 72.4 µM; in assay [10], 44 µM. Moreover, the TGI in assay [1] is above 100 µM; in assay [2] it was above 100 µM; in assay [3], above 100 µM; in assay [4], 67.4 µM; in assay [5] it was above 100 µM; in assay [6], above 94.5 µM. Further, the TGI in assay [7] was 70.7 µM; in [8], above 100 µM; in [9], above 100 µM; in [10] it was above 100 µM.
Consider `COc1ccc2c(c1)C(c1cc(OC)c3c(c1)OCO3)C1=C(COC1=O)N2` (stereo unspecified), for which the GI50 in assay [1] was 0.205 µM; in assay [2] it was 3.44 µM; in assay [3], 0.277 µM; in assay [4] it was 0.214 µM; in assay [5], 0.691 µM; in [6], 0.389 µM. Also, the GI50 in assay [7] is 0.654 µM; in [8] it was 0.36 µM; in [9], 0.049 µM; in [10] it was 0.445 µM. Also, the TGI in assay [1] was 0.481 µM; in assay [2], above 100 µM; in [3] it was 0.713 µM; in assay [4], above 79.4 µM; in assay [5] it was above 89.2 µM; in assay [6] it was 4.8 µM. Further, the TGI is above 39.8 µM in assay [7], above 100 µM in [8], 0.287 µM in [9] and above 100 µM in assay [10].
Consider `O=c1oc2ccc(Br)cc2c(=O)n1-c1ccc(Cl)cc1F`, for which the GI50 was 0.641 µM in assay [1]; 1.45 µM in assay [2]; 2.99 µM in assay [3]; 0.553 µM in [4]; 0.917 µM in assay [5]; 1.43 µM in [6]. Besides, the GI50 in assay [7] was 0.897 µM; in [8], 0.522 µM; in [9], 1.35 µM; in [10] it was 2.9 µM. Moreover, the TGI in [1] is 8.85 µM; in [2] it was 7.81 µM; in [3], 9.93 µM; in [4], 5.69 µM; in assay [5], 9.23 µM; in assay [6], 5.11 µM. Further, the TGI is 5.99 µM in assay [7], 3.03 µM in assay [8], 6.23 µM in assay [9] and above 94.8 µM in assay [10].
Take `C=CC(=O)Nc1cccc(Oc2nc(Nc3ccc(N4CCN(C)CC4)cc3OC)ncc2Cl)c1`: the GI50 is 1.7 µM in [1]; 0.363 µM in [2]; 2.28 µM in assay [3]; 1.86 µM in assay [4]; 2.37 µM in assay [5]; 1.81 µM in [6]. Moreover, the GI50 in [7] was 1.94 µM; in [8] it was 2.02 µM; in assay [9], 1.7 µM; in [10] it was 1.46 µM. Also, the TGI came out at 4.44 µM in [1]; 3.38 µM in [2]; 5.07 µM in [3]; 5.39 µM in assay [4]; 9.24 µM in [5]; 5.66 µM in [6]. Moreover, the TGI is 4.12 µM in assay [7], 4.07 µM in [8], 3.24 µM in [9] and 3.33 µM in assay [10].
For `CN(C)CCOc1ccccc1NC1=C(Cl)C(=O)C(Nc2ccccc2OCCN(C)C)=C(Cl)C1=O`, the GI50 is 0.444 µM in assay [1]; 5.33 µM in assay [2]; 1.78 µM in assay [3]; 29.5 µM in [4]; 9.76 µM in assay [5]; 23.6 µM in assay [6]. Moreover, the GI50 is 2.21 µM in assay [7], above 95 µM in assay [8], 9.42 µM in assay [9] and above 47.3 µM in [10]. Further, the TGI in assay [1] is 0.879 µM; in assay [2], 19.1 µM; in [3], 3.77 µM; in [4] it was above 83.1 µM; in [5], 36.3 µM; in assay [6], above 57.9 µM. The TGI was 6.61 µM in assay [7], above 100 µM in [8], above 40.6 µM in assay [9] and above 100 µM in assay [10].
For the compound `Oc1ccccc1/C=N\NC(=S)N/N=C/c1ccccc1O`, the GI50 in assay [1] is 0.451 µM; in assay [2], 2.57 µM; in assay [3], 4.23 µM; in assay [4], 10.7 µM; in assay [5] it was 1.08 µM; in [6], 2.26 µM. In addition, the GI50 was 3.05 µM in assay [7], 4.14 µM in assay [8], 1.97 µM in [9] and 3.5 µM in assay [10]. The TGI in assay [1] was 24.6 µM; in assay [2], 24.3 µM; in [3] it was 18.9 µM; in assay [4] it was 69.6 µM; in assay [5], 44.1 µM; in assay [6], above 100 µM. For the same compound, the TGI was above 100 µM in [7], above 100 µM in [8], 25.3 µM in [9] and above 100 µM in [10].
As for `COc1ccc(-c2cn(-c3cc(OC)c(OC)c(OC)c3)c(=O)[nH]2)cc1OC`, the GI50 is above 100 µM in assay [1]; above 100 µM in [2]; above 100 µM in assay [3]; 20.2 µM in [4]; above 100 µM in [5]; above 100 µM in [6]. Besides, the GI50 in assay [7], in [8], in assay [9] and in assay [10] was above 100 µM each time. Moreover, the TGI in assay [1], in assay [2], in assay [3], in assay [4], in assay [5] and in assay [6] was above 100 µM in each case. The TGI in assay [7], in assay [8], in [9] and in assay [10] was above 100 µM in each case.
Turning to `COC(=O)[C@@H](C)C[C@H](Cc1ccccc1)NC(=O)c1csc([C@@H](C[C@H](C(C)C)N(C)C(=O)[C@@H](NC(=O)[C@H]2CCCN2C)C2CC2)OC(C)=O)n1`, the GI50 in assay [1] was 0.000198 µM; in [2], 0.00833 µM; in assay [3], 0.000874 µM and < 0.0025 µM; in assay [4], 0.00186 µM; in assay [5], 0.00871 µM and 0.0025 µM; in [7] it was 0.00165 µM and < 0.0025 µM. Further, the concentration for 50% growth inhibition (GI50) was 0.0324 µM in assay [8]; below 0.0025 µM in assay [9]; 0.00664 µM and 0.0025 µM in assay [10]. Besides, the TGI in assay [1] was 0.00695 µM; in assay [3], 0.0117 µM and < 0.0025 µM; in assay [5] it was above 25 µM; in assay [6], above 25 µM; in [7], below 0.0025 µM; in assay [9], 0.00049 µM and < 0.0025 µM. For the same compound, the TGI in [10] was above 25 µM.
Take `NC(=O)c1cc(Br)ccc1NC(=O)/C=C/c1ccccc1`: the GI50 in assay [1] is 0.887 µM; in assay [2], 3.27 µM; in assay [3] it was 1.23 µM; in [4], 1.09 µM; in [5] it was 2.85 µM; in assay [6] it was 6.93 µM. Besides, the GI50 in assay [7] is 2.87 µM; in assay [8], 1.42 µM; in assay [9], 0.421 µM; in assay [10] it was 2.39 µM. Also, the TGI is 4.21 µM in assay [1]; above 100 µM in assay [2]; above 39.5 µM in assay [3]; 6.27 µM in [4]; above 39.4 µM in assay [5]; above 100 µM in assay [6]. The TGI is above 41.4 µM in assay [7], above 100 µM in assay [8], 3.09 µM in assay [9] and above 100 µM in assay [10].
For `CN1C(=O)C2(c3ccccc31)C1CC3C(CO1)C1C2C3(CO)CN1C#N` (stereo unspecified), the TGI in assay [1], in assay [2], in assay [3], in assay [4], in assay [5] and in assay [6] was above 100 µM each time. In addition, the TGI in assay [7], in assay [8], in assay [9] and in [10] was above 100 µM each time.
